Assay results from patent US20080292723A1, “Bioactive acid agrichemical compositions and use thereof” (priority 2007, published 2008).

What was measured:
[1] = system: Saccharomycetes Cerevisiae (Fleishmann's Bakers yeast); experiment: Yeast growth inhibition by turbidity; assay type: cell-based; conditions: Table 12, surfactant ~0.05 wt %, neat additive, Metal 0 ppm
Experimental: Saccharomycetes Cerevisiae was selected as a test organism as it is generally accepted in the industry as an indicator or surrogate organism for a wide variety of fungi. In each of these experiments, the same general procedure was followed unless otherwise indicated.
Experimental Detail: A growth medium was prepared by adding 10 grams of nutrient medium (Difco Sabouraud dextrose broth from BD of Franklin Lakes, N.J., USA) to 300 ml of distilled water. Fleishmann's Bakers yeast was then added to the growth medium while mixing using a magnetic stirrer until a uniform dispersion was obtained having an initial turbidity of between about 50 and 100 NTU as measured using a HF Instruments DRT 100B Turbidity Meter. […] The system/component to be evaluated was then added to the vial and intimately shaken to ensure a good, substantially homogeneous mixture. The turbidity of each mixture was then determined and the vial transferred to an incubator at 30° C. Each vial was periodically removed from the incubator and the mixture in the vials assessed for turbidity: the specific timing for such evaluation was as set forth in the discussion of the experiments and the accompanying tables. […]
In the tables below, the results are presented as the actual turbidity readings (NTU) with a sub-table presenting the change or delta in NTU values. […]

E. amylovora 153N = experiment: Fire blight on crabapples; assay type: in vivo, Snow Drift crabapple trees; conditions: for canker, in words / shoot blight incidence, in words: day 63
Experimental: A study of the bioefficacy of the various agrichemical compositions, including bioactive acid solutions and blends thereof with an antibiotic agrichemical, were evaluated to assess their bioefficacy against fire blight on crabapples. The study was conducted on 5 year old Snow Drift crabapple trees, with each of the compositions being applied to ten trees in two-subplots of five trees, four different times: at 100% bloom-day 1, a second application was made on day 4, a third on day 11 and a final treatment on day 19. The trees were inoculated with E. amylovora […] at a concentration of 4×10^6 cells per milliliter on day 1, following drying of the treatment, with the inoculation being repeated on day 13. Evaluation for fire blight was completed on 100 blossoms for each of the subplots on day 12, day 19 and day 27. Additionally, the incidence of shoot infection and the length of […] evaluated on day 63. The test compositions were prepared by forming solutions of the bioactive agents. Two different dilutions of the MI2 bioactive were evaluated, the first employing 94.46 ml/gallon (25 ml/l) of water (5 ppm of each metal) and the second 188.9 ml/gallon (50 ml/l) of water (10 ppm of each metal). […] Finally, copper hydroxide was diluted at a rate of 1 lb/gallon (119.8 g/l). Each of the compositions and blends were spray applied at a rate of 50 gallons (189.3 l) pre acre. The results are presented as the mean of the counts.

| SMILES | T0 (turbidity) [1] | Shoot Incidence (E. amylovora 153N; Day 63, rate 5 lbs/a (2.27 kg/a), mean of counts) | canker, in words (E. amylovora 153N) | shoot blight incidence, in words (E. amylovora 153N) |
| --- | --- | --- | --- | --- |
| CCCCCCCCCCCCOS(=O)(=O)[O-].[Na+] | 48 | – | – | – |
| [Cu+2].[OH-].[OH-] [copper hydroxide] | – | 1.0 | appeared to prevent canker | greatly reduced |
| [H]/N=C(/N)N[C@H]1[C@H](O)[C@@H](O)[C@H](O[C@@H]2O[C@@H](C)[C@](O)(C=O)[C@H]2O[C@@H]2O[C@@H](CO)[C@H](O)[C@@H](O)[C@@H]2NC)[C@@H](N/C(N)=N\[H])[C@@H]1O [streptomycin] | – | – | appeared to prevent canker | greatly reduced |
